Read-outs that look alike come from different tables or passages of the source.
Legend:
[1] = molecular target: T1, c-Met (cytoplasmic domain) (Homo sapiens, UniProt P08581); experiment: c-Met Kinase Assay (same methods as for ALK, with modifications); format: biochemical
T1 construct: 10 ng/mL c-Met (cytoplasmic domain, Invitrogen Corporation #PV3143); purchased Invitrogen Corporation PV3143
Procedure, shortened: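 IC50 values were fitted by variable-slope sigmoidal regression of percent inhibition against log compound concentration. Phosphorylation was read with Eu-N1 PT66 antibody after a 15 min, 37 °C reaction. The reaction was initiated with 10 ng/mL c-Met cytoplasmic domain on wells coated with 10 μg/mL PLC-γ in TBS.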

[2] = molecular target: T2, baculovirus-expressed ALK (Homo sapiens, UniProt Q9UM73); experiment: ALK Kinase Assay (ELISA-type, time-resolved fluorescence); format: biochemical
T2 construct: host or cells: baculovirus expression system
T2 sequence (Q9UM73 19-1620): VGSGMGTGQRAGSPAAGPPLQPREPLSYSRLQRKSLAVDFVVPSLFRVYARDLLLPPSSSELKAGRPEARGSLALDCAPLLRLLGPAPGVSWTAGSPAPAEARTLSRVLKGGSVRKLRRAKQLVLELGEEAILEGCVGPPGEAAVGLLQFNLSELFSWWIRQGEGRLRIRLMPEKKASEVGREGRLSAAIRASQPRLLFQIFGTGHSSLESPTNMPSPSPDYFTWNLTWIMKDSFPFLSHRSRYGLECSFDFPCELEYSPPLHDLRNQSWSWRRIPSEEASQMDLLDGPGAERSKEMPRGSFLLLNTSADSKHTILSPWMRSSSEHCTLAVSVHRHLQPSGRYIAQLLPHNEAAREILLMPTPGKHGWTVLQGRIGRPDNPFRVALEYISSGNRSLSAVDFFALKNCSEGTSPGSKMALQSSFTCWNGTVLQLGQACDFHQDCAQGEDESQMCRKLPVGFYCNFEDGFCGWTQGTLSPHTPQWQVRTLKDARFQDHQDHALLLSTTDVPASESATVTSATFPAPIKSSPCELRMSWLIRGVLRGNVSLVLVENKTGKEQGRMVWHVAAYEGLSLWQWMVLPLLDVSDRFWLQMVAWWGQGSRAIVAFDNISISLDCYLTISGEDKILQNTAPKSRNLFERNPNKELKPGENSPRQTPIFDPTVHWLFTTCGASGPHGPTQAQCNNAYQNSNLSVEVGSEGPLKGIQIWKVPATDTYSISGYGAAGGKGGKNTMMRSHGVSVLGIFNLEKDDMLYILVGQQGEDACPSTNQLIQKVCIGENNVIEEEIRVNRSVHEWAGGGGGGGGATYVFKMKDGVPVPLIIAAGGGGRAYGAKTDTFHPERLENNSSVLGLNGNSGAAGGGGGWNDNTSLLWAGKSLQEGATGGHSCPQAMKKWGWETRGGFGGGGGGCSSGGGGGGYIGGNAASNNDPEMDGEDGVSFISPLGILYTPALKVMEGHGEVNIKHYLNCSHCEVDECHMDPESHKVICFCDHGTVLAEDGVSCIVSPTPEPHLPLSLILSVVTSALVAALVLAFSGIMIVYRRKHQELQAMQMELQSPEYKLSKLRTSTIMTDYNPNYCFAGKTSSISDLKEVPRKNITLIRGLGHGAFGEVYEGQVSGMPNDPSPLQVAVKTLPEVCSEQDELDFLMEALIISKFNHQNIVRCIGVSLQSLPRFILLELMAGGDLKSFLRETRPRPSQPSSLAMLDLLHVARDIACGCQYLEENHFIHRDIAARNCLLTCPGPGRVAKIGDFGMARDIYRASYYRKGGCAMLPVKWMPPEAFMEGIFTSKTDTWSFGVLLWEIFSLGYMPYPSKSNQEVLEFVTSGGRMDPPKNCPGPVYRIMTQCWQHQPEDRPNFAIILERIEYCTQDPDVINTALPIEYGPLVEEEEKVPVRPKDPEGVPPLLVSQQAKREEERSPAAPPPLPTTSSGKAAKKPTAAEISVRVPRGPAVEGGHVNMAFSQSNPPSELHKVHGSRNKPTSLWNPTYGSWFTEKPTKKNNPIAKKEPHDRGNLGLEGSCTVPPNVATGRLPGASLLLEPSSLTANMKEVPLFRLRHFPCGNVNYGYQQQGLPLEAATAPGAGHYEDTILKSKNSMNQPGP
Procedure, shortened: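 Wells were coated with phospholipase C-γ at 10 μg/mL in Tris-buffered saline. Adding 30 ng/ml enzyme started the reaction, which ran at 37° C for 15 minutes before Eu-N1 PT66 antibody detection. Percent inhibition versus log10 concentration gave IC50 by variable-slope fit.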

[3] = c-Met kinase inhibition, 1 μM ATP (Km level), read-out: cMet Activity
[4] = ALK kinase inhibition, 1 μM ATP (Km level), read-out: ALK Activity
[5] = 1 μM ATP (Km level), read-out: cMet Activity (c-Met Kinase Inhibition, IC50)
[6] = 1 μM ATP (Km level), read-out: ALK Activity (ALK Kinase Inhibition, IC50)

T1 sequence (P08581 956-1390 limits assumed): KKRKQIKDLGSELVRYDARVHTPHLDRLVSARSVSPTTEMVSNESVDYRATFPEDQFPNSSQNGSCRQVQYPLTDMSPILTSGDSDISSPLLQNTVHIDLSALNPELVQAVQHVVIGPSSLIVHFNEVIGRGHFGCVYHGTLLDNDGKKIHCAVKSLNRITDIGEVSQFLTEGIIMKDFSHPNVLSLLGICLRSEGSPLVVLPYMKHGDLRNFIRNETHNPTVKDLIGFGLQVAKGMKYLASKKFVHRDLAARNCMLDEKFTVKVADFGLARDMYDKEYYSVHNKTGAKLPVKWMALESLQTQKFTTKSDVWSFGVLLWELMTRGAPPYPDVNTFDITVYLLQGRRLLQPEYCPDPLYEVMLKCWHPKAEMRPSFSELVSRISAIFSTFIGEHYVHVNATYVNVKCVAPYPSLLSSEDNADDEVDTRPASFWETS

| IC50 [1, 3] [nM] | IC50 [2, 4] [nM] | IC50 [1, 5] [nM] | IC50 [2, 6] [nM] | Molecule | further results |
| --- | --- | --- | --- | --- | --- |
| 100 to 1000 | < 100 | – | – | CN1CCN(C(=O)n2ccnc2)Cc2ccc(Nc3ncc(Cl)c(N[C@@H]4CCCC[C@H]4NS(C)(=O)=O)n3)cc21 [Example 482, N-((1R,2R)-2-{5-Chloro-2-[4-(imidazole-1-carbonyl)-1-methyl-2,3,4,5-tetrahydro-1H-benzo[e][1,4]diazepin-8-ylamino]-pyrimidin-4-ylamino}-cyclohexyl)-methanesulfonamide] | – |
| – | – | > 10000 | 1000 to 10000 | COc1ccc(Nc2ncc(Cl)c(N[C@H]3[C@@H](C(N)=O)[C@@H]4C=C[C@H]3C4)n2)c2c1CCCC(N1CCOCC1)C2 (single isomer, unassigned) [Example 942] | – |
| – | – | 100 to 1000 | < 100 | CC(C)N1C(=O)CCCc2cc(Nc3ncc(Cl)c(N[C@@H]4CCCC[C@H]4NS(C)(=O)=O)n3)ccc21 [Example 667, N-{(1R,2R)-2-[5-Chloro-2-(1-isopropyl-2-oxo-2,3,4,5-tetrahydro-1H-benzo[b]azepin-7-ylamino)-pyrimidin-4-ylamino]-cyclohexyl}-methanesulfonamide] | – |
| – | – | > 10000 | < 100 | CNC(=O)CN1CCc2cc(Nc3ncc(Cl)c(Nc4ccc(N5CCN(C)CC5)cc4OC)n3)c(OC)cc2CC1 [Example 783, 2-(7-{5-Chloro-4-[2-methoxy-4-(4-methyl-piperazin-1-yl)-phenylamino]-pyrimidin-2-ylamino}-8-methoxy-1,2,4,5-tetrahydro-benzo[d]azepin-3-yl)-N-methyl-acetamide] | – |
| – | – | 1000 to 10000 | < 100 | CN1CCN(c2ccc(Nc3nc(Nc4ccc5c(c4)C(C)(C)CCC(=O)N5)ncc3Cl)c(-n3cccn3)c2)CC1 [Example 628, 7-{5-Chloro-4-[4-(4-methyl-piperazin-1-yl)-2-pyrazol-1-yl-phenylamino]-pyrimidin-2-ylamino}-5,5-dimethyl-1,3,4,5-tetrahydro-benzo[b]azepin-2-one] | – |

The remaining lines, values behind:

| Molecule | IC50 [1, 3] [nM] | IC50 [2, 4] [nM] | IC50 [1, 5] [nM] | IC50 [2, 6] [nM] | further results |
| --- | --- | --- | --- | --- | --- |
| CNC(=O)c1ccccc1Nc1nc(Nc2ccc3c(c2)C2CCC(C3)N2C(=O)C2CC2)ncc1Cl (stereo not shown) [Example 70, 2-[5-Chloro-2-(12-cyclopropanecarbonyl-12-aza-tricyclo[7.2.1.0*2,7*]dodeca-2(7),3,5-trien-4-ylamino)-pyrimidin-4-ylamino]-N-methyl-benzamide] | < 100 | < 100 | – | – | – |
| CNC(=O)c1ccccc1Nc1nc(Nc2ccc3c(c2)CNC(=O)CCN3C(C)=O)ncc1Cl [Example 1305, 2-[2-(1-Acetyl-4-oxo-1,2,3,4,5,6-hexahydro-benzo[b][1,5]diazocin-8-ylamino)-5-chloro-pyrimidin-4-ylamino]-N-methyl-benzamide] | – | – | – | – | IC50 ([1]; 1 μM ATP (Km level), 10 ng/mL c-Met, read-out: cMet Activity (c-Met kinase inhibition, IC50 class)): < 100 nM; IC50 ([2]; 1 μM ATP (Km level), 30 ng/ml ALK, 37° C., 15 minutes, read-out: ALK Activity (ALK kinase inhibition, IC50 class)): < 100 nM |
| COCCN1CCc2ccc(Nc3ncc(Cl)c(Nc4ccc(N5CCOCC5)cc4OC)n3)cc2CC1 [Example 309, 5-Chloro-N*2*-[3-(2-methoxy-ethyl)-2,3,4,5-tetrahydro-1H-benzo[d]azepin-7-yl]-N*4*-(2-methoxy-4-morpholin-4-yl-phenyl)-pyrimidine-2,4-diamine] | 100 to 1000 | < 100 | – | – | – |
| CCN1C(=O)CCCc2c1ccc(Nc1ncc(Cl)c(N[C@@H]3CCC[C@H]3NS(C)(=O)=O)n1)c2OC (relative stereo) [Example 374, N-{trans-2-[5-Chloro-2-(1-ethyl-6-methoxy-2-oxo-2,3,4,5-tetrahydro-1H-benzo[b]azepin-7-ylamino)-pyrimidin-4-ylamino]-cyclopentyl}-methanesulfonamide] | > 10000 | 100 to 1000 | – | – | – |
| 2-[5-Chloro-2-(6-methoxy-2-oxo-2,3,4,5-tetrahydro-1H-benzo[b]azepin-7-ylamino)-pyrimidin-4-ylamino]-N-methyl-benzamide [Example 3] | 1000 to 10000 | < 100 | – | – | – |
| CNC(=O)c1ccccc1Nc1nc(Nc2cc3c(cc2OC)N(C)C(=O)OCC3)ncc1Cl [Example 1505, 2-[5-Chloro-2-(3-methoxy-5-methyl-6-oxo-5,6,8,9-tetrahydro-7-oxa-5-aza-benzocyclohepten-2-ylamino)-pyrimidin-4-ylamino]-N-methyl-benzamide] | – | – | – | – | IC50 ([1]; c-Met kinase inhibition, 1 μM ATP, read-out: cMet Activity): 1000 to 10000 nM; IC50 ([2]; ALK kinase inhibition, 1 μM ATP, read-out: ALK Activity): < 100 nM |

From US8148391B2 (Cephalon, Inc., priority 2006, dated 2012)
